Reference: ChEMBL document CHEMBL2390853, “The products of the reaction between 6-amine-1,3-dimethyl uracil and bis-chalcones induce cytotoxicity with massive vacuolation in HeLa cervical cancer cell line” (Eur J Med Chem, 2013)
Active and inactive are the calls of the source. The calls are words filed in the database; no cut-off is given here.

Columns and labels:
MCF7 [1] = experiment: Cytotoxicity against human MCF7 cells assessed as growth inhibition after 48 hrs by MTT assay; format: functional, cell-based; settings: MCF7, 48 h
[2] = Cytotoxicity against human C33 cells assessed as growth inhibition after 48 hrs by MTT assay; format: functional, cell-based; settings: C33, 48 h
K562 [3] = experiment: Cytotoxicity against human K562 cells assessed as growth inhibition after 48 hrs by MTT assay; format: functional, cell-based; settings: K562, 48 h
[4] = Cytotoxicity against human HEK293Q cells assessed as growth inhibition after 48 hrs by MTT assay; format: cell-based
[5] = Cytotoxicity against human CALO cells assessed as growth inhibition after 48 hrs by MTT assay; format: functional, cell-based
SW-620 [6] = experiment: Cytotoxicity against human SW620 cells assessed as growth inhibition after 48 hrs by MTT assay; format: functional, cell-based; settings: SW-620, 48 h
HeLa [7] = experiment: Cytotoxicity against human HeLa cells assessed as growth inhibition after 48 hrs by MTT assay; format: functional, cell-based
SW480 [8] = experiment: Cytotoxicity against human SW480 cells assessed as growth inhibition after 48 hrs by MTT assay; format: functional, cell-based; settings: SW480, 48 h
HeLa [9] = experiment: Cytotoxicity against human HeLa cells assessed as growth inhibition at 0.25 to 100 uM after 48 hrs by MTT assay; format: functional, cell-based
CALO = experiment: Cytotoxicity against human CALO cells assessed as growth inhibition at 0.25 to 100 uM after 48 hrs by MTT assay; format: functional, cell-based
[10] = Cytotoxicity against human HEK293Q cells assessed as growth inhibition at 0.25 to 100 uM after 48 hrs by MTT assay; format: cell-based
SW-620 [11] = experiment: Cytotoxicity against human SW620 cells assessed as growth inhibition at 0.25 to 100 uM after 48 hrs by MTT assay; format: functional, cell-based
SW480 [12] = experiment: Cytotoxicity against human SW480 cells assessed as growth inhibition at 0.25 to 100 uM after 48 hrs by MTT assay; format: functional, cell-based
C33 = experiment: Cytotoxicity against human C33 cells assessed as growth inhibition at 0.25 to 100 uM after 48 hrs by MTT assay; format: functional, cell-based
HeLa [13] = experiment: Induction of cytoplasmic vacuolation in human HeLa cells; format: functional, cell-based
MCF7 [14] = experiment: Cytotoxicity against human MCF7 cells assessed as growth inhibition at 0.25 to 100 uM after 48 hrs by MTT assay; format: functional, cell-based
K562 [15] = experiment: Cytotoxicity against human K562 cells assessed as growth inhibition at 0.25 to 100 uM after 48 hrs by MTT assay; format: functional, cell-based
HeLa [16] = experiment: Induction of cytoplasmic vacuolation in human HeLa cells at 13 uM after 24 hrs by neutral red staining-based light microscopic analysis; format: functional, cell-based
HeLa [17] = experiment: Cell cycle arrest in human HeLa cells assessed as accumulation at sub G1 phase at 13 uM after 72 hrs by propidium iodide staining-based FACS flow cytometric analysis; format: functional
HeLa [18] = experiment: Cell cycle arrest in human HeLa cells assessed as increase in accumulation at G1 phase at 13 uM after 48 to 72 hrs by propidium iodide staining-based FACS flow cytometric analysis; format: functional
HeLa [19] = experiment: Cell cycle arrest in human HeLa cells assessed as effect on G2/M phase at 13 uM after 12 to 72 hrs by propidium iodide staining-based FACS flow cytometric analysis; format: functional
HeLa [20] = experiment: Induction of autophagy in human HeLa cells assessed as increase in conversion of LC3B-1 to LC3B-2 at 13 uM after 24 hrs by Western blot analysis; format: functional, cell-based
HeLa [21] = experiment: Induction of apoptosis in human HeLa cells assessed as change in Bax expression at 2.5 to 15 uM after 24 hrs by Western blot analysis; format: functional, cell-based
HeLa [22] = experiment: Induction of necrosis in human HeLa cells assessed as inhibition of cell viability at 13 uM after 24 to 48 hrs by MTT assay; format: functional, cell-based
HeLa [23] = experiment: Induction of apoptosis in human HeLa cells assessed as change in p53 expression at 2.5 to 15 uM after 24 hrs by Western blot analysis; format: functional, cell-based
HeLa [24] = experiment: Induction of autophagy in human HeLa cells assessed as increase in conversion of LC3B-1 to LC3B-2 at 13 uM after 24 hrs by Western blot analysis in presence of spautin-1; format: functional, cell-based
HeLa [25] = experiment: Induction of cytoplasmic vacuolation in human HeLa cells at 13 uM after 24 hrs by hematoxylin staining-based light microscopic analysis; format: functional, cell-based
HeLa [26] = experiment: Induction of apoptosis in human HeLa cells assessed as DNA fragmentation at 13 uM after 48 hrs by TUNEL assay; format: functional, cell-based
HeLa [27] = experiment: Induction of apoptosis in human HeLa cells assessed as change in Bcl-2 expression at 2.5 to 15 uM after 24 hrs by Western blot analysis; format: functional, cell-based
HeLa [28] = experiment: Induction of necrosis in human HeLa cells at 13 uM after 24 to 48 hrs by LDH release assay; format: functional, cell-based
HeLa [29] = experiment: Cytotoxicity against human HeLa cells assessed as cell viability at 13 uM after 24 hrs by MTT assay in presence of spautin-1; format: functional, cell-based
HeLa [30] = experiment: Induction of apoptosis in human HeLa cells assessed as change in procaspase-3 expression at 2.5 to 15 uM after 24 hrs by Western blot analysis; format: functional, cell-based
HeLa [31] = experiment: Cell cycle arrest in human HeLa cells assessed as decrease in reduction in cells at S phase at 13 uM after 72 hrs by propidium iodide staining-based FACS flow cytometric analysis; format: functional
HeLa [32] = experiment: Induction of cytoplasmic vacuolation in human HeLa cells assessed as change in cell morphology at 13 uM after 24 hrs by hematoxylin staining-based light microscopic analysis in presence of cycloheximide; format: functional
HeLa [33] = experiment: Induction of necrosis in human HeLa cells assessed as inhibition of cell viability at 13 uM after 24 to 48 hrs by tryphan blue exclusion assay; format: functional, cell-based
HeLa [34] = experiment: Induction of autophagy in human HeLa cells assessed as large vacuole formation at 13 uM after 24 hrs by inverted microscopic analysis in presence of spautin-1; format: functional, cell-based
HeLa [35] = experiment: Cytotoxicity against human HeLa cells assessed as cell viability at 13 uM after 48 hrs by MTT assay in presence of gallic acid; format: functional, cell-based
HeLa [36] = experiment: Cytotoxicity against human HeLa cells assessed as cell viability at 50 uM after 3 hrs; format: cell-based
HeLa [37] = experiment: Induction of autophagy in human HeLa cells assessed as increase in conversion of LC3B-1 to LC3B-2 at 10 uM after 3 hrs by Western blot analysis; format: functional, cell-based
HeLa [38] = experiment: Induction of apoptosis in human HeLa cells assessed as change in procaspase-3 expression at 0.25 uM after 24 hrs by Western blot analysis; format: functional, cell-based
HeLa [39] = experiment: Induction of apoptosis in human HeLa cells assessed as change in Bax expression at 0.25 uM after 24 hrs by Western blot analysis; format: functional, cell-based
HeLa [40] = experiment: Induction of apoptosis in human HeLa cells assessed as change in p53 expression at 0.25 uM after 24 hrs by Western blot analysis; format: functional, cell-based
HeLa [41] = experiment: Induction of apoptosis in human HeLa cells assessed as DNA fragmentation at 0.25 uM after 48 hrs by TUNEL assay; format: functional, cell-based
HeLa [42] = experiment: Cell cycle arrest in human HeLa cells assessed as accumulation at G2/M phase at 0.25 uM after 12 hrs by propidium iodide staining-based FACS flow cytometric analysis; format: functional
HeLa [43] = experiment: Induction of apoptosis in human HeLa cells; format: functional, cell-based
HeLa [44] = experiment: Cell cycle arrest in human HeLa cells assessed as accumulation at polyploidy region at 0.25 uM after 48 to 72 hrs by propidium iodide staining-based FACS flow cytometric analysis; format: functional
HeLa [45] = experiment: Cell cycle arrest in human HeLa cells assessed as accumulation at sub G1 phase at 0.25 uM after 48 to 72 hrs by propidium iodide staining-based FACS flow cytometric analysis; format: functional

Cn1cccc1/C=C1\COCc2c1nc1c(c2-c2cccn2C)c(=O)n(C)c(=O)n1C
IC50 (MCF7 [1]): 8.37 µM
IC50 [2]: 21.6 µM
IC50 (K562 [3]): 37.6 µM
IC50 [4]: 67.7 µM
IC50 [5]: 43.7 µM
IC50 (SW-620 [6]): 14 µM
IC50 (HeLa [7]): 19.6 µM
IC50 (SW480 [8]): 28.2 µM

Cn1c(=O)c2c(-c3ccsc3)c3c(nc2n(C)c1=O)/C(=C/c1ccsc1)COC3
growth inhibition (GI) (HeLa [9]): inactive
growth inhibition (GI) (CALO): inactive
Activity [10]: Non-toxic
growth inhibition (GI) (SW-620 [11]): inactive
growth inhibition (GI) (SW480 [12]): inactive
growth inhibition (GI) (C33): inactive
Activity (HeLa [13]): inactive
growth inhibition (GI) (MCF7 [14]): inactive
growth inhibition (GI) (K562 [15]): inactive

Cn1cccc1/C=C1\CCCc2c1nc1c(c2-c2cccn2C)c(=O)n(C)c(=O)n1C
Activity (HeLa [16]): Active
IC50 (MCF7 [1]): 9.33 µM
Activity (HeLa [17]): inactive
Activity (HeLa [18]): Active
IC50 [2]: 22.2 µM
Activity (HeLa [19]): inactive
Activity (HeLa [20]): Active
IC50 (K562 [3]): 10.4 µM
Activity (HeLa [21]): inactive
Activity (HeLa [22]): Active
Activity (HeLa [23]): inactive
Activity (HeLa [24]): inactive
Activity (HeLa [25]): Active
Activity (HeLa [26]): inactive
Activity (HeLa [27]): inactive
IC50 [4]: 60.1 µM
Activity (HeLa [28]): Active
Activity (HeLa [29]): Active
IC50 [5]: 13.2 µM
Activity (HeLa [30]): inactive
IC50 (SW-620 [6]): 8.54 µM
Activity (HeLa [31]): Active
IC50 (HeLa [7]): 13.1 µM
Activity (HeLa [32]): Active
Activity (HeLa [33]): Active
Activity (HeLa [34]): inactive
IC50 (SW480 [8]): 4.4 µM
Activity (HeLa [35]): Active

C[C@@H]1C[C@@H]([C@H](O)CC2CC(=O)NC(=O)C2)C(=O)[C@@H](C)C1 [CYCLOHEXIMIDE]
Activity (HeLa [36]): Non-toxic

Fc1ccc(CNc2ncnc3ccc(F)cc23)cc1
Activity (HeLa [37]): inactive

Cn1c(=O)c2c(-c3ccsc3)c3c(nc2n(C)c1=O)/C(=C/c1ccsc1)CCC3
IC50 (MCF7 [1]): > 100 µM
IC50 [2]: > 100 µM
IC50 (K562 [3]): > 100 µM
IC50 [4]: > 100 µM
IC50 [5]: > 100 µM
IC50 (SW-620 [6]): > 100 µM
Activity (HeLa [13]): inactive
IC50 (HeLa [7]): > 100 µM
IC50 (SW480 [8]): > 100 µM

CC(=O)O[C@H]1C(=O)[C@@]2(C)[C@H]([C@H](OC(=O)c3ccccc3)[C@]3(O)C[C@H](OC(=O)[C@H](O)[C@@H](NC(=O)c4ccccc4)c4ccccc4)C(C)=C1C3(C)C)[C@]1(OC(C)=O)CO[C@@H]1C[C@@H]2O
Activity (HeLa [38]): inactive
Activity (HeLa [39]): inactive
Activity (HeLa [40]): inactive
Activity (HeLa [41]): Active
Activity (HeLa [42]): Active
Activity (HeLa [43]): Active
Activity (HeLa [44]): Active
Activity (HeLa [45]): Active
